# PubChem BioAssay (NCI)
#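 Interpolation was linear, between the two tested concentrations surrounding the appropriate level; five concentrations were tested over 48 hours in 96-well plates. GI50 marks 50% less growth. TGI marks complete inhibition of growth.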
# Tests used:
# Experiment in all cases: growth of human tumour cells (NCI), 48 h
# [1] = tested on: MOLT-4 leukemia
# [2] = tested on: MCF7 breast
# [3] = tested on: HCT-116 colon
# [4] = tested on: SN12C renal
# [5] = tested on: OVCAR-5 ovarian
# [6] = tested on: NCI/ADR-RES ovarian
# [7] = tested on: MDA-MB-435
# [8] = tested on: SF-295 CNS
# [9] = tested on: UACC-257 melanoma
# [10] = tested on: U251 CNS
# [11] = tested on: PC-3 prostate
# [12] = tested on: EKVX NSCLC
# [13] = tested on: OVCAR-3 ovarian
# [14] = tested on: SNB-19 CNS
# [15] = tested on: HS 578T breast
# [16] = tested on: HL-60(TB) leukemia
# [17] = tested on: UACC-62 melanoma
# [18] = tested on: NCI-H23 lung
# [19] = tested on: K-562 leukemia
# [20] = tested on: A549 NSCLC
# [21] = tested on: LOX IMVI melanoma
# [22] = tested on: OVCAR-4 ovarian
# [23] = tested on: ACHN renal
# [24] = tested on: SW-620 colon
# [25] = tested on: HCT-15 colon
# [26] = tested on: COLO 205 colon
# [27] = tested on: TK-10 renal
# [28] = tested on: MDA-MB-231 breast
# [29] = tested on: SK-OV-3 ovarian
# [30] = tested on: A498 renal
# [31] = tested on: NCI-H522 lung
# [32] = tested on: MALME-3M melanoma
# [33] = tested on: BT-549 breast
# [34] = tested on: RPMI-8226 leukemia
# [35] = tested on: HT29 colon
# [36] = tested on: SF-268 CNS
# [37] = tested on: SK-MEL-28 melanoma
# [38] = tested on: HOP-62 NSCLC
# [39] = tested on: CCRF-CEM leukemia
# [40] = tested on: NCI-H226 lung
# [41] = tested on: CAKI-1 renal
# [42] = tested on: HCC-2998 colon
# [43] = tested on: SK-MEL-5 melanoma
# [44] = tested on: UO-31 renal
# [45] = tested on: 786-0 renal
# [46] = tested on: IGROV1 ovarian
# [47] = tested on: SK-MEL-2 melanoma
# [48] = tested on: RXF 393 renal
# [49] = tested on: M14 melanoma
# [50] = tested on: DU-145 prostate
# [51] = tested on: OVCAR-8 ovarian
# [52] = tested on: KM12 colon
# [53] = tested on: SR leukemia
# [54] = tested on: NCI-H460 lung
# [55] = tested on: SF-539 CNS
# [56] = tested on: T-47D breast
# [57] = tested on: SNB-75 CNS
smiles,measurement,setting,value
COc1cc(/C=N/Nc2ncnc3c2cnn3-c2ccccc2)ccc1O,GI50,[1],> 25 µM
same,TGI,[1],> 25 µM
same,GI50,[2],6.54 µM
same,TGI,[2],> 25 µM
same,GI50,[3],8.18 µM
same,TGI,[3],> 25 µM
same,GI50,[4],> 25 µM
same,TGI,[4],> 25 µM
same,GI50,[5],> 25 µM
same,TGI,[5],> 25 µM
same,GI50,[6],> 20.9 µM
same,TGI,[6],> 25 µM
same,GI50,[7],1.41 µM
same,TGI,[7],> 15.7 µM
same,GI50,[8],> 15.5 µM
same,TGI,[8],> 25 µM
same,GI50,[9],> 25 µM
same,TGI,[9],> 25 µM
same,GI50,[10],11.6 µM
same,TGI,[10],> 25 µM
same,GI50,[11],5.24 µM
same,TGI,[11],> 25 µM
same,GI50,[12],> 25 µM
same,TGI,[12],> 25 µM
same,GI50,[13],7.18 µM
same,TGI,[13],> 25 µM
same,GI50,[14],> 25 µM
same,TGI,[14],> 25 µM
same,GI50,[15],2.18 µM
same,TGI,[15],> 25 µM
same,GI50,[16],11.7 µM
same,TGI,[16],> 25 µM
same,GI50,[17],15.6 µM
same,TGI,[17],> 25 µM
same,GI50,[18],> 25 µM
same,TGI,[18],> 25 µM
same,GI50,[19],2.85 µM
same,TGI,[19],> 25 µM
same,GI50,[20],> 20.5 µM
same,TGI,[20],> 25 µM
same,GI50,[21],10.3 µM
same,TGI,[21],> 25 µM
same,GI50,[22],15.5 µM
same,TGI,[22],> 25 µM
same,GI50,[23],7.93 µM
same,TGI,[23],> 25 µM
same,GI50,[24],11.1 µM
same,TGI,[24],> 25 µM
same,GI50,[25],4.06 µM
same,TGI,[25],> 25 µM
same,GI50,[26],> 14.6 µM
same,TGI,[26],> 25 µM
same,GI50,[27],> 19.2 µM
same,TGI,[27],> 25 µM
same,GI50,[28],2.34 µM
same,TGI,[28],> 25 µM
same,GI50,[29],9.88 µM
same,TGI,[29],> 25 µM
same,GI50,[30],> 25 µM
same,TGI,[30],> 25 µM
same,GI50,[31],2.27 µM
same,TGI,[31],> 17.3 µM
same,GI50,[32],> 25 µM
same,TGI,[32],> 25 µM
same,GI50,[33],> 25 µM
same,TGI,[33],> 25 µM
same,GI50,[34],> 25 µM
same,TGI,[34],> 25 µM
same,GI50,[35],8.18 µM
same,TGI,[35],> 24.1 µM
same,GI50,[36],> 18.4 µM
same,TGI,[36],> 25 µM
same,GI50,[37],18.5 µM
same,TGI,[37],> 25 µM
same,GI50,[38],16.9 µM
same,TGI,[38],> 25 µM
same,GI50,[39],4.54 µM
same,TGI,[39],> 25 µM
same,GI50,[40],> 25 µM
same,TGI,[40],> 25 µM
same,GI50,[41],2.52 µM
same,TGI,[41],> 25 µM
same,GI50,[42],21.6 µM
same,TGI,[42],> 25 µM
same,GI50,[43],12.6 µM
same,TGI,[43],> 25 µM
same,TGI,[44],> 25 µM
same,GI50,[45],> 16.2 µM
same,TGI,[45],> 25 µM
same,GI50,[46],5.03 µM
same,TGI,[46],> 22.8 µM
same,GI50,[47],5.85 µM
same,TGI,[47],20.6 µM
same,GI50,[48],4.33 µM
same,TGI,[48],> 25 µM
same,GI50,[49],> 21.4 µM
same,TGI,[49],> 25 µM
same,GI50,[50],> 19.6 µM
same,TGI,[50],> 25 µM
same,GI50,[51],> 14.7 µM
same,TGI,[51],> 25 µM
same,GI50,[52],1.64 µM
same,TGI,[52],> 25 µM
same,GI50,[53],6.09 µM
same,TGI,[53],> 25 µM
same,GI50,[54],12.9 µM
same,TGI,[54],> 25 µM
same,GI50,[55],8.84 µM
same,TGI,[55],> 25 µM
same,GI50,[56],7.64 µM
same,TGI,[56],> 25 µM
same,GI50,[57],1.1 µM
same,TGI,[57],> 7.39 µM
